pEC50, pIC50: −log10 of the molar value. No end group written: not given here.
target: HLA-A*11:01 (Homo sapiens, UniProt P04439, A114D/D185E/E176A/F33Y/L180Q/S129P/T187R); assay: Cell-based competitive MHC-I-binding assay, CJO-A lymphoblastoid cells; details: not given

**Q.** VVGAAGVGK was tested. Which pIC50 did it give?
**A.** 4.95

**Q.** With VVVGARGVGK as the compound, how does the pIC50 read?
**A.** 4.34

**Q.** How did the pIC50 turn out when VVVGAAGVGK was run?
**A.** 5.15

**Q.** `CC[C@H](C)[C@H](NC(=O)[C@@H](N)CO)C(=O)N[C@H](C(=O)N1CCC[C@H]1C(=O)N[C@@H](CO)C(=O)NCC(=O)N1CCC[C@H]1C(=O)N[C@@H](CC(C)C)C(=O)N[C@@H](CCCCN)C(=O)O)[C@@H](C)CC` [Flu-MP 13-21, reference compound] was tested. Which pIC50 did it give?
**A.** 5.84

same assay, conditions: Table S2; […], competition with 500 nM FITC-labelled KVFPK(FITC)ALINK, serum-free RPMI, 4 hours, 37°C, peptide from 100 µM, flow cytometry; analyzed three times, mean; read-out: EC/IC50 (M) Binding assay: IC50, HLA-A*11:01

**Q.** For `CC(C)[C@H](N)C(=O)N[C@H](C(=O)N[C@H](C(=O)NCC(=O)N[C@@H](C)C(=O)N[C@@H](CO)C(=O)NCC(=O)N[C@H](C(=O)NCC(=O)N[C@@H](CCCCN)C(=O)O)C(C)C)C(C)C)C(C)C`, which IC50 is on record?
**A.** 1.02e-05 M

**Q.** With VVGARGVGK as the compound, how does the IC50 read?
**A.** 0.000157 M

**Q.** For `CC(C)[C@H](N)C(=O)N[C@H](C(=O)NCC(=O)N[C@@H](C)C(=O)N[C@@H](CO)C(=O)NCC(=O)N[C@H](C(=O)NCC(=O)N[C@@H](CCCCN)C(=O)O)C(C)C)C(C)C`, which IC50 is on record?
**A.** 1.27e-05 M

target: HLA-A*03:01 (Homo sapiens, UniProt P04439); assay: not given; format: binding; details: not given

**Q.** VVGAAGVGK was tested. Which pEC50 did it give?
**A.** 3.56

**Q.** VVVGARGVGK was tested. Which pEC50 did it give?
**A.** 4.16

**Q.** How did the pEC50 turn out when VVVGAAGVGK was run?
**A.** 4.03

**Q.** With `CC[C@H](C)[C@H](N)C(=O)N[C@@H](CC(C)C)C(=O)N[C@@H](CCCNC(=N)N)C(=O)NCC(=O)N[C@@H](CO)C(=O)N[C@H](C(=O)N[C@@H](C)C(=O)N[C@@H](Cc1c[nH]cn1)C(=O)N[C@@H](CCCCN)C(=O)O)C(C)C` [Flu-NP 265-273, reference compound] as the compound, how does the pEC50 read?
**A.** 5.20

target: HLA-A*02:01 (Homo sapiens, UniProt P04439, D140Y/D185E/D98H/E176V/E277Q/G131W/G231S/I119V/I121R/I166T/I218V/L300P/L318F/N151K/N90K/P208A/P217A/Q86G/Q94H/R138H/R169H/T345S); assay: MHC-I stabilization assay, TAP-deficient T2 cells; format: binding; details: not given

**Q.** How did the pEC50 turn out when LVVVGARGV was run?
**A.** 3.37

**Q.** With YLVVGARGV as the compound, how does the pEC50 read?
**A.** 4.81

**Q.** With KLVVVGASGV as the compound, how does the pEC50 read?
**A.** 4.14

**Q.** How did the pEC50 turn out when `CC(C)C[C@H](NC(=O)[C@@H](N)CCCCN)C(=O)N[C@H](C(=O)N[C@H](C(=O)N[C@H](C(=O)NCC(=O)N[C@@H](C)C(=O)N[C@@H](C)C(=O)NCC(=O)N[C@H](C(=O)O)C(C)C)C(C)C)C(C)C)C(C)C` was run?
**A.** 4.30

**Q.** How did the pEC50 turn out when LVVVGASGV was run?
**A.** 3.24

**Q.** With YLVVGASGV as the compound, how does the pEC50 read?
**A.** 4.67

**Q.** How did the pEC50 turn out when KLVVVGARGV was run?
**A.** 3.82

same assay, conditions: Table 1; T2 cells, HLA-A*02:01 stabilization, serum-free RPMI, 4 hours, 37°C, peptide from 100 µM in at least 8 serial dilution steps, flow cytometry MFI (BB7.2); half-maximal MFI; analyzed three times, mean; read-out: EC50 (µM) Binding assay

**Q.** With YVVVGACGV as the compound, how does the EC50 read?
**A.** 138 µM

**Q.** YVVVGASGV was tested. Which EC50 did it give?
**A.** 207 µM

**Q.** YLVVVGASGV was tested. Which EC50 did it give?
**A.** 10.7 µM

**Q.** Which EC50 does the source give for YLVVVGACGV here?
**A.** 95.5 µM

**Q.** LLVVGAAGV was tested. Which EC50 did it give?
**A.** 17.5 µM

**Q.** For LLVVGAVGV, which EC50 is on record?
**A.** 25.6 µM

**Q.** For LLVVGASGV, which EC50 is on record?
**A.** 90.6 µM

**Q.** Which EC50 does the source give for YLVVGAVGV here?
**A.** 22.9 µM

**Q.** With YVVVGADGV as the compound, how does the EC50 read?
**A.** 199 µM

**Q.** For LLVVGADGV, which EC50 is on record?
**A.** 83.4 µM

**Q.** How did the EC50 turn out when YLVVGACGV was run?
**A.** 26.1 µM

**Q.** YVVVGAAGV was tested. Which EC50 did it give?
**A.** 117 µM

**Q.** With LLVVGARGV as the compound, how does the EC50 read?
**A.** 23.7 µM

**Q.** YLVVGAAGV was tested. Which EC50 did it give?
**A.** 16.4 µM

**Q.** For YVVVGARGV, which EC50 is on record?
**A.** 51.6 µM

**Q.** Which EC50 does the source give for YLVVVGAAGV here?
**A.** 27.7 µM

**Q.** Which EC50 does the source give for YLVVVGADGV here?
**A.** 5.68 µM

**Q.** Which EC50 does the source give for YLVVVGAVGV here?
**A.** 15.5 µM

**Q.** With YLVVGADGV as the compound, how does the EC50 read?
**A.** 13.4 µM

**Q.** LVVVGACGV was tested. Which EC50 did it give?
**A.** 619 µM

**Q.** LVVVGAAGV was tested. Which EC50 did it give?
**A.** 191 µM

**Q.** For LVVVGADGV, which EC50 is on record?
**A.** 453 µM

**Q.** With LLVVGACGV as the compound, how does the EC50 read?
**A.** 73.5 µM

**Q.** For YVVVGAVGV, which EC50 is on record?
**A.** 28.3 µM

system: transgenic humanized HLA-A2/DR1 mice; assay: Immunization of transgenic humanized HLA-A2/DR1 mice, ex vivo splenocyte stimulation; format: in vivo, mouse; details: 100 μg peptide s.c. days 0, 14, 21 with 25 μg Poly I:C and 10 μg Pan-DR peptide; splenocytes one week after third injection restimulated overnight with 10 μg/mL peptide, intracellular IFN-γ; 5 mice

**Q.** How did the “CD8+ T cells in the spleen reacting to the minimal L2-9-mer peptide” value turn out when “MTEYKL L VVGA V GV GKSALTIQLIQNHFVDE [31-mer G12V peptide]” was run?
**A.** about 8%

same assay, conditions: same immunization; HLA-A*02:01-positive/G12V-positive CFPAC-1, overnight incubation, intracellular IFN-γ

**Q.** How did the “Recognition of CFPAC-1 cells by CD8+ T cells of immunized mice” value turn out when “MTEYKL L VVGA V GV GKSALTIQLIQNHFVDE [31-mer G12V peptide]” was run?
**A.** recognized

same assay, conditions: same immunization; ex vivo restimulation with WT-9-mer

**Q.** How did the “Recognition of the wild-type peptide by CD8+ T cells of immunized mice” value turn out when “MTEYKL L VVGA V GV GKSALTIQLIQNHFVDE [31-mer G12V peptide]” was run?
**A.** did not recognize

same assay, conditions: same immunization; ex vivo restimulation with original 9-mer

**Q.** How did the “Share of L2-9-mer-reactive CD8+ T cells that also reacted to the original 9-mer epitope” value turn out when “MTEYKL L VVGA V GV GKSALTIQLIQNHFVDE [31-mer G12V peptide]” was run?
**A.** half

Source: publication PMC9204602, “Optimized Anchor-Modified Peptides Targeting Mutated RAS Are Promising Candidates for Immunotherapy” (Frontiers in Immunology, 2022)
